{
  "source": "paper PMC9489553",
  "about": "“Biochemical and clinical studies of putative allergens to assess what distinguishes them from other non-allergenic proteins in the same family” (Transgenic Research, 2022)",
  "target": "T1, ChMDH (Cladosporium herbarum, UniProt P0C0Y5)",
  "T1 construct": "full length, codon-optimised synthetic gene, pET-28a, E. coli BL21(DE3), N-terminal His-tag cleaved, tetramer",
  "T1 sequence (P0C0Y5 whole entry)": "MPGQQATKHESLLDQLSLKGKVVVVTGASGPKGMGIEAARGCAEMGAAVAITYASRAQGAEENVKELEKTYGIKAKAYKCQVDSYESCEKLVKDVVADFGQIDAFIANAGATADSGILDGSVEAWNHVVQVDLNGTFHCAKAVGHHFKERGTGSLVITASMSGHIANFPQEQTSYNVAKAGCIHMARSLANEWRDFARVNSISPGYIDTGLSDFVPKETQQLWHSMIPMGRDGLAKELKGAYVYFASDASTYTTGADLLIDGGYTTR",
  "test": "X-ray crystal structure, […] Å",
  "format": "binding",
  "conditions": "co-crystallised with 5 mM NADP+, pH 7.0, 4 °C; active site",
  "data": [
    {"compound": "NC(=O)c1ccc[n+]([C@@H]2O[C@H](COP(=O)(O)OP(=O)(O)OC[C@H]3O[C@@H](n4cnc5c(N)ncnc54)[C@H](OP(=O)(O)O)[C@@H]3O)[C@@H](O)[C@H]2O)c1", "note": "[NADP^+]", "values": [
      {"measurement": "X-ray crystal structure, 2.04 Å", "value": "ChMDH (the third orphan allergen selected for study) in complex with NADP^+ was determined"}
    ]}
  ]
}
